In series [1] the target is T1, TTERecF (Caldanaerobacter subterraneus, UniProt Q8RDL3, Q286A).
T1 construct: gene recF; 42 kDa monomer, 84 kDa dimer with ATP or ATPγS
The experiment in a line: isothermal titration calorimetry. The class given is binding. To be noted: pH 7.0, 20 mM Tris-HCl, 200 mM NaCl, 25 °C; one-site model; signature motif mutant.

The target in series [2] is T2, TTERecF (Caldanaerobacter subterraneus, UniProt Q8RDL3, S282A).
T2 construct: gene recF; 42 kDa monomer, 84 kDa dimer with ATP or ATPγS
The experiment in a line: isothermal titration calorimetry. The following applies: pH 7.0, 20 mM Tris-HCl, 200 mM NaCl, 25 °C; one-site model; signature motif mutant. The class given is binding.

The target of series [3] is T3, TTERecF (Caldanaerobacter subterraneus, UniProt Q8RDL3, S283A).
T3 construct: gene recF; 42 kDa monomer, 84 kDa dimer with ATP or ATPγS
The experiment in a line: isothermal titration calorimetry. The class given is binding. The following applies: pH 7.0, 20 mM Tris-HCl, 200 mM NaCl, 25 °C; one-site model; signature motif mutant. (In general: ITC needs no label: the signal is the heat of the interaction.)

Series [4] deals with T4, TTERecF (Caldanaerobacter subterraneus, UniProt Q8RDL3).
T4 construct: gene recF; 42 kDa monomer, 84 kDa dimer with ATP or ATPγS
The experiment in a line: isothermal titration calorimetry. The class given is binding.

For series [5], the target named is T5, TTERecF (Caldanaerobacter subterraneus, UniProt Q8RDL3, G35A).
T5 construct: gene recF; 42 kDa monomer, 84 kDa dimer with ATP or ATPγS
The experiment in a line: isothermal titration calorimetry. To be noted: pH 7.0, 20 mM Tris-HCl, 200 mM NaCl, 25 °C; one-site model; Walker A mutant. The class given is binding.

Series [6] deals with T6, TTERecF (Caldanaerobacter subterraneus, UniProt Q8RDL3, S37A).
T6 construct: gene recF; 42 kDa monomer, 84 kDa dimer with ATP or ATPγS
The experiment in a line: isothermal titration calorimetry. The class given is binding.

In series [7] the target is T7, TTERecF (Caldanaerobacter subterraneus, UniProt Q8RDL3, K36A).
T7 construct: gene recF; 42 kDa monomer, 84 kDa dimer with ATP or ATPγS
The experiment in a line: isothermal titration calorimetry. The class given is binding.

The target in series [8] is T8, TTERecF (Caldanaerobacter subterraneus, UniProt Q8RDL3, N38A).
T8 construct: gene recF; 42 kDa monomer, 84 kDa dimer with ATP or ATPγS
The experiment in a line: isothermal titration calorimetry. The class given is binding. To be noted: pH 7.0, 20 mM Tris-HCl, 200 mM NaCl, 25 °C; one-site model; Walker A mutant.

Another series has as its target T9, TTERecF-ATP dimer (Thermoanaerobacter tengcongensis MB4, UniProt Q8RDL3 1-364).
T9 sequence: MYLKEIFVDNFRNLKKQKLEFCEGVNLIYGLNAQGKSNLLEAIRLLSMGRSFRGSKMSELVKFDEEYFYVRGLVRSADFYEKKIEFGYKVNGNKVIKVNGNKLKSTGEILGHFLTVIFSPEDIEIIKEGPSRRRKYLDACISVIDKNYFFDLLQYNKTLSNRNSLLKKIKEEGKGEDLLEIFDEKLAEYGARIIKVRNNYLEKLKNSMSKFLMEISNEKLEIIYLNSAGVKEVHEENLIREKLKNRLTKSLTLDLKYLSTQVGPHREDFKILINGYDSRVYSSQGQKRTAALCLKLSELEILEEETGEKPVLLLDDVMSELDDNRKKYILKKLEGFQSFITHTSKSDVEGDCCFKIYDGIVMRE
The experiment in a line: BLI; ATP (1 mM in preincubation); kd 1.44E-03 s-1; BLI: 20 mM Tris-HCl pH 7.0, 200 mM NaCl, 0.05% Tween 20, 25 C; biotinylated DNA on streptavidin sensors; no Mg2+ stated. The following applies: protein: recombinant; tags: N-terminal His6; chain copies: 2; label: 5' biotin. In general terms: In BLI a coated tip is dipped into the sample, and binding shifts an interference pattern.

By Kd is commonly meant a measure of binding affinity in units of concentration.

T2 sequence (Q8RDL3 whole entry S282A): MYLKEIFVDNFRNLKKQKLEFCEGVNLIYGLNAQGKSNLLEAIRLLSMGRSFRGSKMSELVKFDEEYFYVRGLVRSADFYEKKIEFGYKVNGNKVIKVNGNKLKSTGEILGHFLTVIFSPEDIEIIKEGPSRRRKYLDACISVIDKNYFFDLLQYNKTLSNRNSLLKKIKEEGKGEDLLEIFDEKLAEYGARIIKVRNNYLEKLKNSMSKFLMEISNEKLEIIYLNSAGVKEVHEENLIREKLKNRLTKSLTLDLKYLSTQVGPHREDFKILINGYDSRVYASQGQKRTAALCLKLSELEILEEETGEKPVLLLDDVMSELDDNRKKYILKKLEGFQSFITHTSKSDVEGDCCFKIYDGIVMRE
T8 sequence (Q8RDL3 whole entry N38A): as the sequence (Q8RDL3 whole entry S282A) above, with N38A, A282S counted along it
T5 sequence (Q8RDL3 whole entry G35A): as the sequence (Q8RDL3 whole entry S282A) above, with G35A, A282S counted along it
T1 sequence (Q8RDL3 whole entry Q286A): as the sequence (Q8RDL3 whole entry S282A) above, with A282S, Q286A counted along it
T7 sequence (Q8RDL3 whole entry K36A): as the sequence (Q8RDL3 whole entry S282A) above, with K36A, A282S counted along it
T6 sequence (Q8RDL3 whole entry S37A): as the sequence (Q8RDL3 whole entry S282A) above, with S37A, A282S counted along it
T3 sequence (Q8RDL3 whole entry S283A): as the sequence (Q8RDL3 whole entry S282A) above, with A282S, S283A counted along it

`Nc1ncnc2c1ncn2[C@@H]1O[C@H](COP(=O)(O)OP(=O)(O)OP(=O)(O)O)[C@@H](O)[C@H]1O` [ATP]: the KD result at TTERecF [1] was “conserved mutant residues S282A, S283A, and Q286A in signature motif was similar”; on TTERecF [2] it was “conserved mutant residues S282A, S283A, and Q286A in signature motif was similar”; on TTERecF [3] it was “conserved mutant residues S282A, S283A, and Q286A in signature motif was similar”. Further, the Kd at TTERecF [4] worked out at 1.3 µM; at TTERecF [6], 27 ± 7.9 µM; at TTERecF [7] it was 38 ± 8.7 µM. Besides, the hardly interacted result was “The mutants G35A and N38A hardly interacted with ATP” on TTERecF [5]; “The mutants G35A and N38A hardly interacted with ATP” at TTERecF [8].

On to `Nc1ncnc2c1ncn2[C@@H]1O[C@H](CO[P@](=O)(O)O[P@](=O)(O)O[P@@](=O)(O)S)[C@@H](O)[C@H]1O` [ATPɤS], for which binding on TTERecF [4] was characterised by a dissociation constant (Kd) of 32 µM.

Take ACCTTATGGAAAGCATCGTAG (ssDNA) [21mer ssDNA]: the Kd in the series with TTERecF-ATP dimer worked out at 0.016 µM.

(Values after PMC5794780, “ATP-dependent conformational change in ABC-ATPase RecF serves as a switch in DNA repair” (Scientific Reports, 2018).)
